The source made the active and inactive calls.
How the values were obtained:
Procathepsin L = Procathepsin L (Homo sapiens, UniProt P07711)
Aspartyl aminopeptidase = target: T1, Aspartyl aminopeptidase (Plasmodium falciparum 3D7, UniProt Q8I2J3)
T1 sequence (Q8I2J3 whole entry): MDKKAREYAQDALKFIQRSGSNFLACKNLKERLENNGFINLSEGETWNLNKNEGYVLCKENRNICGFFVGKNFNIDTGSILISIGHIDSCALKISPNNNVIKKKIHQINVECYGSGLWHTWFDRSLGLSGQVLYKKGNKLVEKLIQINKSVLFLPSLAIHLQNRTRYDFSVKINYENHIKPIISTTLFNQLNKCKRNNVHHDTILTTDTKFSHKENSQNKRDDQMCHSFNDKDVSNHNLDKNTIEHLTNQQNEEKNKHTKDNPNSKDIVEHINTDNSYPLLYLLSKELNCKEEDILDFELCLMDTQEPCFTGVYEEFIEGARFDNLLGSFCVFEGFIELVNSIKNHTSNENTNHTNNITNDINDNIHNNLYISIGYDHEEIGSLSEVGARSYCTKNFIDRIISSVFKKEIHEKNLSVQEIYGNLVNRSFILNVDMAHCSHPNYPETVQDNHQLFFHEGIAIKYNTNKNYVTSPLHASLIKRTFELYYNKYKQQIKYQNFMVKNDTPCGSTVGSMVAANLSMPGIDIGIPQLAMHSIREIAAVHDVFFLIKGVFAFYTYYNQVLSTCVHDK

fMet-Leu-Phe receptor = target: T2, fMet-Leu-Phe receptor (Homo sapiens, UniProt P21462); assay: formyl peptide receptor binders – dose response (AID 519); assay type: functional
T2 sequence (P21462 whole entry): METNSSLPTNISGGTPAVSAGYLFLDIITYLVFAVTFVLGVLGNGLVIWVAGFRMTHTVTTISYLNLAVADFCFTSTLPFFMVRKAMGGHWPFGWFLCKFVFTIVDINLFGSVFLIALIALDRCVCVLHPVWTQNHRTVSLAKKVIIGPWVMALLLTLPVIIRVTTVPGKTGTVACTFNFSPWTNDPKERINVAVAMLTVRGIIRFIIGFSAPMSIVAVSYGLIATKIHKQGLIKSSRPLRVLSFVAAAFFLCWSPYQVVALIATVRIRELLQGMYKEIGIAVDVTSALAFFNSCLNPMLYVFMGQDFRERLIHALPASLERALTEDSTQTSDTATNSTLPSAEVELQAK

NS3 = NS3 (Hepatitis C virus, UniProt A3EZJ3); assay: PubChem AID 2173; set-up: species or system Hepacivirus hominis
Sequence of NS3 (A3EZJ3 whole entry, the tested form may be a part): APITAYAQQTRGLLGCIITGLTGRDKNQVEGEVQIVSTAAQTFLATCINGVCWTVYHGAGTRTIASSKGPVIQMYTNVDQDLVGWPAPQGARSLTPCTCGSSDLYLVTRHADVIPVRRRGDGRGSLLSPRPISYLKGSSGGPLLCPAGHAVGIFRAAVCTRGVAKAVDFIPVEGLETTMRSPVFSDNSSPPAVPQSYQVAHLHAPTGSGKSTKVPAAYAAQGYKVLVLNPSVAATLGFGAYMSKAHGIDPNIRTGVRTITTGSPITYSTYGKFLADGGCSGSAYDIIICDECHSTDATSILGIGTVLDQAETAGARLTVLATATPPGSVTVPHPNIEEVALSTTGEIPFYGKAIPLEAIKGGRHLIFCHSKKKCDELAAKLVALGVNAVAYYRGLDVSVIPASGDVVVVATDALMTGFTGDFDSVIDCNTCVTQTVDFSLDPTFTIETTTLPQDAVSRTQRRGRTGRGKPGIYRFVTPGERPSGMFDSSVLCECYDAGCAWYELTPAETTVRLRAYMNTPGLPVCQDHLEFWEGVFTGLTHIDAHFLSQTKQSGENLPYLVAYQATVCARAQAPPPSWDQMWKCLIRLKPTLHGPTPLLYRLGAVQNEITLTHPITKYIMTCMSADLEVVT

[1] = CCR5-tropic HIV-1 fusion blockers – cell-based, CCR5-tropic Env, dose response (AID 2279); assay type: functional
Aminopeptidase N = target: T3, Aminopeptidase N (Plasmodium falciparum FcB1/Columbia, UniProt O96935); assay: malaria alanyl aminopeptidase activity blockers – biochemical, fluorogenic H-Leu-NHMec substrate, 1536-well (AID 1445); set-up: species or system Plasmodium falciparum 3D7, 3D7
T3 sequence (O96935 whole entry): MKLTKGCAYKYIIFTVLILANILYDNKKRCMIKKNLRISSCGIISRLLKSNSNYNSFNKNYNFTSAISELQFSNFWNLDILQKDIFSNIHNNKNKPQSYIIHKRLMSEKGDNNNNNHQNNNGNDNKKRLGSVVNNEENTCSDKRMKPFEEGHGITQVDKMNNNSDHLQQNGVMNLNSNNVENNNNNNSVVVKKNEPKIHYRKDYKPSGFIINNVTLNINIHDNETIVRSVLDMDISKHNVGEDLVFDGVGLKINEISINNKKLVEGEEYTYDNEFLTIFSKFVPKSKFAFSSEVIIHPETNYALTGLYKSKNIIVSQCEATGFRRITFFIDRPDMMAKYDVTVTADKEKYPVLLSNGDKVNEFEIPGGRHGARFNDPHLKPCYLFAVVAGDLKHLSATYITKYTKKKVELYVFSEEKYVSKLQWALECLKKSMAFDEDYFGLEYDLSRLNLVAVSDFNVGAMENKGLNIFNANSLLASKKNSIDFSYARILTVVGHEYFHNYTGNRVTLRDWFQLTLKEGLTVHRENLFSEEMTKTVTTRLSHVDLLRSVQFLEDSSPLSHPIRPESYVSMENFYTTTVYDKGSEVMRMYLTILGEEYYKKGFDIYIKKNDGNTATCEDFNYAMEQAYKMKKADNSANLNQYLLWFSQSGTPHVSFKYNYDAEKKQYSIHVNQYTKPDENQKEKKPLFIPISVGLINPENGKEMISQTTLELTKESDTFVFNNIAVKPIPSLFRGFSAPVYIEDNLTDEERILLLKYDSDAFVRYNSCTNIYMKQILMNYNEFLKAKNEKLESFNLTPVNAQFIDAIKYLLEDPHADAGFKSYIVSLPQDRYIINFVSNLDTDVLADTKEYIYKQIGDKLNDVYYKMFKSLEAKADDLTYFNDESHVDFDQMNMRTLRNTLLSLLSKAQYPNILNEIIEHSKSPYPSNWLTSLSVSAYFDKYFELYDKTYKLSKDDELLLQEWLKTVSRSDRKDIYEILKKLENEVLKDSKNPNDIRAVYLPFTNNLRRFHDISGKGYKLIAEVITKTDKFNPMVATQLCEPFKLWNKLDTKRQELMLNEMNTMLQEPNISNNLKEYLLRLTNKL

[2] = target: T4, Short transient receptor potential channel 4 (Mus musculus, UniProt Q9QUQ5); assay: block of DAMGO-driven TRPC4 calcium entry – cell-based, HEK293 TRPC4/mu-opioid, Fluo-4 calcium, dose response (AID 434942); assay type: functional;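 further: potency of inhibitors blocking the TRPC4 calcium response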
T4 sequence (Q9QUQ5 whole entry): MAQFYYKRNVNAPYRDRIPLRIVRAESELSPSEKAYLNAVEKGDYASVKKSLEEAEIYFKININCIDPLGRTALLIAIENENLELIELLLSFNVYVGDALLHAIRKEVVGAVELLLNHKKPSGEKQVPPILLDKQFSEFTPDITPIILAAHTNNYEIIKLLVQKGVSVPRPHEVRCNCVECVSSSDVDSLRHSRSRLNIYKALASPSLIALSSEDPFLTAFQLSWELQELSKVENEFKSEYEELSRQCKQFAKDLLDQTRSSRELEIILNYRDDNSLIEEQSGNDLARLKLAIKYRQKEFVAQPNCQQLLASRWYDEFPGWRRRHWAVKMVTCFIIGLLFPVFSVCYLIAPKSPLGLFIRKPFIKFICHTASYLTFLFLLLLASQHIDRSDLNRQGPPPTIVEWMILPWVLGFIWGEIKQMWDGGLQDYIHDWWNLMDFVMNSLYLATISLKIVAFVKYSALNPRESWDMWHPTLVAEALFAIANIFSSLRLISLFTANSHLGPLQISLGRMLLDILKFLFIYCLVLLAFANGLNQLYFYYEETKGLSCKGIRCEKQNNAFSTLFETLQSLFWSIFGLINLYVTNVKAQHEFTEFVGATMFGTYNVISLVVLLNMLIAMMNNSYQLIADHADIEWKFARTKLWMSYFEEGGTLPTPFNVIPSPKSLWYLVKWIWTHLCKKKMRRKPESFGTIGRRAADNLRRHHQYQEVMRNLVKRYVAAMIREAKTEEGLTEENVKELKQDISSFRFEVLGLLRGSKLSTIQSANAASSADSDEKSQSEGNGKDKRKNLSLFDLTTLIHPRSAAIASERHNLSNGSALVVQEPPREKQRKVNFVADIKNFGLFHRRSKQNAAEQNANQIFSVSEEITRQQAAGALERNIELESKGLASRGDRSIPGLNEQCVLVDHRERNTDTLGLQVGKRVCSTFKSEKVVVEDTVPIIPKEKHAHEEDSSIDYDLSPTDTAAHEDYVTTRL

BJ [3] = assay: growth inhibition of engineered Ras-driven BJ cells – cell-based, alamar blue fluorescence, cherrypicked samples, dose response (AID 2631); assay type: functional; conditions: Homo sapiens;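 further: confirmatory dose-response assay in RAS-dependent BJ fibroblasts engineered with TERT, LT and ST, with cytotoxicity read by fluorescence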
[4] = target: T5, Luciferin 4-monooxygenase (Photinus pyralis, UniProt P08659); assay: Counter Screen for Luciferase-based Assay Positives. [Related pubchem assays: 620, 618, 411 ]
T5 sequence (P08659 whole entry): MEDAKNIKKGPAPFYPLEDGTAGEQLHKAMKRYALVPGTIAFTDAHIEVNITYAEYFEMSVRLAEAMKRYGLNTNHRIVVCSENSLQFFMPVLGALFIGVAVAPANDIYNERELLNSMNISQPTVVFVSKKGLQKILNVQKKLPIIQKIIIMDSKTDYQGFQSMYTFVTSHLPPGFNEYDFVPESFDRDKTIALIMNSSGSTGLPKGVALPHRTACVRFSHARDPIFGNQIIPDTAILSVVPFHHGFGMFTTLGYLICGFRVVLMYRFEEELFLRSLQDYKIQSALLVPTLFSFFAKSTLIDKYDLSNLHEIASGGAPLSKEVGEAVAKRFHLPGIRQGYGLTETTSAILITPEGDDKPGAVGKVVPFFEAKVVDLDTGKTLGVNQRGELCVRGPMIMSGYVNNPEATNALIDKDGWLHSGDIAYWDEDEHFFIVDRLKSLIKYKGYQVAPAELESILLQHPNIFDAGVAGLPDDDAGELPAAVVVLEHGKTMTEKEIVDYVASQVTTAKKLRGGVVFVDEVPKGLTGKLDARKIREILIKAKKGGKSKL

[5] = target: Cyclin-dependent kinase 5/CDK5 activator 1 (Homo sapiens, UniProt Q00535); assay: blockade of human CDK5 activity – biochemical, cherry-picked samples, set 2, dose response (AID 504545)
Sequence of Cyclin-dependent kinase 5/CDK5 activator 1 (Q00535 whole entry): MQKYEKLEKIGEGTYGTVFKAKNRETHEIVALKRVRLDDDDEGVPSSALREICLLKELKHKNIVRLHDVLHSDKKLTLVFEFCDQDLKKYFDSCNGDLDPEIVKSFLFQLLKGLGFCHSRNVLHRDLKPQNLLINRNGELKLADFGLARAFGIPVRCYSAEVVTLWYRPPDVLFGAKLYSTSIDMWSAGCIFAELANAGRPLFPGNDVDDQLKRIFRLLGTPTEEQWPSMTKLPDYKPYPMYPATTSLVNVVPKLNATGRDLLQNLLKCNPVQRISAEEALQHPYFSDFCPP
Sequence of Cyclin-dependent kinase 5/CDK5 activator 1 (Q15078 whole entry, further chain): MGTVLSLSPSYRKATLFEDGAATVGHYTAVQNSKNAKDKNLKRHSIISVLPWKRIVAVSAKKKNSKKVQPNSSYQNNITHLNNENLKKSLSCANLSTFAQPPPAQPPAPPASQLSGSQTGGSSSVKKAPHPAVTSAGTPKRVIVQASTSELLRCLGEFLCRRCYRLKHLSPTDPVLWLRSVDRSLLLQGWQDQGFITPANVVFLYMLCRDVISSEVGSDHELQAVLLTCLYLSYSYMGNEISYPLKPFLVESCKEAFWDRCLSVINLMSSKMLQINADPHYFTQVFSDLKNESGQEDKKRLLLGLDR

[6] = target: T5, Luciferin 4-monooxygenase; assay: inhibition of purified Photinus pyralis luciferase – biochemical, luminescence, dose response (AID 1891)
HT-1080 = assay: HT1080 cell viability loss – fluorescence readout (AID 620); assay type: functional, cell-based; conditions: Homo sapiens
[7] = DRD fibroblast viability loss – cell-based, non-viral oncogenic, luminescence, dose response (AID 1934); assay type: functional; conditions: Homo sapiens
BJ [8] = assay: cells; assay type: functional, cell-based; conditions: Homo sapiens
BJ [9] = assay: BJ-TERT-LT-ST fibroblast viability loss – cell-based, RAS-independent, luminescence, dose response (AID 1935); assay type: functional; conditions: Homo sapiens;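 further: BJ fibroblasts immortalized with TERT plus LT and ST oncogenes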
BJ [10] = assay: BJ-TERT fibroblast viability loss – cell-based, RAS-independent, luminescence, dose response (AID 1933); assay type: functional; conditions: Homo sapiens
[11] = Luminescence Cell-Based Dose Confirmation HTS to Identify Inhibitors of Platelet Dense Granule Release. [Related pubchem assays: 1663 (Primary HTS), 1678 (Summary of Project)]; assay type: functional
Staphylococcus aureus = assay: Inhibitors of Bacterial Quorum Sensing Structure Activity Relationship (SAR) Analysis: Dose Response Assay. [Related pubchem assays: 700, 527 ]; assay type: functional, organism-based
[12] = target: T6, Neuropeptide Y receptor type 1 (Homo sapiens, UniProt P25929); assay: Fluorescence-based counterscreen for agonists of NPY-Y2: cell-based high-throughput dose response assay for agonists of NPY-Y1.; assay type: functional
T6 sequence (P25929 whole entry): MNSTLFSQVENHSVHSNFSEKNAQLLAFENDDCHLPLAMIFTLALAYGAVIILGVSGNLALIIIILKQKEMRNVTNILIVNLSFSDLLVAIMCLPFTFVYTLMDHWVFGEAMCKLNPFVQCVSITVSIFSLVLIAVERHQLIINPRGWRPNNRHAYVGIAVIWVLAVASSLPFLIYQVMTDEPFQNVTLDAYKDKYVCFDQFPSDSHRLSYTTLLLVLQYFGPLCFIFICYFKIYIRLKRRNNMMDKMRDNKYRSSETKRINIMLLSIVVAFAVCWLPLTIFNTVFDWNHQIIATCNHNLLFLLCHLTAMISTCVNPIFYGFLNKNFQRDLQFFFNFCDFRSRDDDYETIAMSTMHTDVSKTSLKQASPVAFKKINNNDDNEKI

[13] = target: T7, Neuropeptide Y receptor type 2 (Homo sapiens, UniProt P49146); assay: Fluorescence-based cell-based high-throughput dose response assay for agonists of NPY-Y2. [Related pubchem assays: 1703 (Screening assay (CNGC inhibitors).), 1359 (Screening assay (NPY-Y2 potentiators or agonists).), 1304 (Screening assay (NPY-Y1 potentiators or agonists).), 1710 (Screening assay (NPY-Y2 agonists).), 1791 (Summary AID.)]; assay type: functional
T7 sequence (P49146 whole entry): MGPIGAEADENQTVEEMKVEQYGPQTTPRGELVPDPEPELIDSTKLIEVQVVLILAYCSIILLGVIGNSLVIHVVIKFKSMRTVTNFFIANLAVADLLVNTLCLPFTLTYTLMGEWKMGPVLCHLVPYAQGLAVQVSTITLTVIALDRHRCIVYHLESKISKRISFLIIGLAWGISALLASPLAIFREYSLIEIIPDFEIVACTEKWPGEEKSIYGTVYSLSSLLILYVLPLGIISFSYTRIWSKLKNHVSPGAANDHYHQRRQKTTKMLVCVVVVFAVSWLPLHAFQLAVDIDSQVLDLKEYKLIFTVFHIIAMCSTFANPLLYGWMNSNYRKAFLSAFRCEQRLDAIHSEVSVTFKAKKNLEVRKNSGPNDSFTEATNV

HEK293 = assay: Fluorescence-based counterscreen for potentiators or agonists of NPY-Y2: cell-based high-throughput dose response assay to identify inhibitors of cyclic nucleotide gated ion channel (CNGC) activity. In this assay, the parental HEK293 cell line transfected with a cyclic-nucleotide gated ion channel (CNGC)-based cAMP sensor is used to measure inhibition of isoproterenol-induced CNGC activity by test compound.; assay type: functional; conditions: Homo sapiens;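 further: stimulus is 1 µM isoproterenol at EC100 plus PDE inhibitor Ro 20-1724 at 25 µM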
[14] = A Cell Based Secondary Assay To Explore Cytotoxicity of Compounds that Sensitize Mycobacterium Tuberculosis to Beta-Lactam Antibiotics.; assay type: functional

Sequence of Procathepsin L (P07711 whole entry): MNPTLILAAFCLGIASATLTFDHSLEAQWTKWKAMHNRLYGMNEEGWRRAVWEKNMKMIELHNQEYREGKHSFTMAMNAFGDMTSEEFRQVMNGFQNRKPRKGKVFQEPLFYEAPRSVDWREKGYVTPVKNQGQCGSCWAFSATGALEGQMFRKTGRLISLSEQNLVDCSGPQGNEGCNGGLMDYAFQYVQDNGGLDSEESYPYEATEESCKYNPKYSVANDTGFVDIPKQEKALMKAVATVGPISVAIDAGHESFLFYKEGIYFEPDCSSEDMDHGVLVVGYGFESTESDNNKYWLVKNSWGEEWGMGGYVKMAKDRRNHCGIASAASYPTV

With O=C(O)c1ccc(O)c(O)c1 [PROTOCATECHUIC ACID] the IC50 (Procathepsin L) was > 59.6 µM (not active) and the IC50 (Aspartyl aminopeptidase) was 0.479 µM (active).

In the case of CCOc1ccc(C(=O)C2=C(O)C(=O)N(c3nc(C)c(C)s3)C2c2ccco2)cc1 (configuration not stated), the Ki (fMet-Leu-Phe receptor) is reported as 57.7 µM (inactive) and the IC50 (NS3) is reported as 6.35 µM (active).

In the case of COc1cc(/C=C2\SC(=O)N(c3ccccc3Cl)C2=O)cc([N+](=O)[O-])c1O, the IC50 [1] is reported as 42.5 µM (active), the IC50 (Aminopeptidase N) is reported as 65.8 µM (active) and the EC50 [2] is reported as 1.06 µM (active).

With COc1ccc(-c2cc3nc(C)cc(N)n3n2)cc1 the EC50 (BJ [3]) was > 133 µM (inactive), the EC50 [4] was 2.85 µM (active) and the AC50 [5] was 17.5 µM (active). For the same compound, the EC50 [6] was 0.513 µM (active), the EC50 (HT-1080) was > 50 µM (not active) and the EC50 [7] was 6.14 µM (active). For the same compound, the EC50 (BJ [8]) was 4.45 µM (active), the EC50 (BJ [9]) was 17.6 µM (active) and the EC50 (BJ [10]) was 3.85 µM (inconclusive). The EC50 [11] was 0.621 µM (active).

With CCc1oc2ccccc2c1C(=O)c1ccc(O)cc1 [BENZARONE] the IC50 (Staphylococcus aureus) was 1.29 µM (active).

In the case of NC(=O)c1ccc2nc(NC(=O)c3ccc(N)cc3)sc2c1, the EC50 [12] is reported as > 35.4 µM (not active), the EC50 [13] is reported as > 35.4 µM (not active) and the EC50 (HEK293) is reported as > 35.4 µM (not active).

For O=C1/C(=C/c2ccncc2)CCc2ccccc21, the CC50 [14] was 35.4 µM (active).
